Molecular target: PLK1 (Homo sapiens, UniProt P53350)
Assay: PLK1 Inhibition Assay I (radioactive-phosphate incorporation)
Format: biochemical
Conditions: Ki(app); PLK1 Inhibition Assay I or II (table does not say which)
In short: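 Ki(app) values came from non-linear regression of initial rates after background subtraction, with phosphopeptide measured by phosphocellulose filter binding and scintillation counting. PLK1 at 2 nM was preincubated with compound (typically from 10 μM, 2-fold dilutions) for 10 min, then run 240 min at 25° C with 350 μM [γ-33P]ATP and 450 μM peptide substrate in HEPES pH 7.5 buffer.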

Chain of PLK1 (P53350 whole entry): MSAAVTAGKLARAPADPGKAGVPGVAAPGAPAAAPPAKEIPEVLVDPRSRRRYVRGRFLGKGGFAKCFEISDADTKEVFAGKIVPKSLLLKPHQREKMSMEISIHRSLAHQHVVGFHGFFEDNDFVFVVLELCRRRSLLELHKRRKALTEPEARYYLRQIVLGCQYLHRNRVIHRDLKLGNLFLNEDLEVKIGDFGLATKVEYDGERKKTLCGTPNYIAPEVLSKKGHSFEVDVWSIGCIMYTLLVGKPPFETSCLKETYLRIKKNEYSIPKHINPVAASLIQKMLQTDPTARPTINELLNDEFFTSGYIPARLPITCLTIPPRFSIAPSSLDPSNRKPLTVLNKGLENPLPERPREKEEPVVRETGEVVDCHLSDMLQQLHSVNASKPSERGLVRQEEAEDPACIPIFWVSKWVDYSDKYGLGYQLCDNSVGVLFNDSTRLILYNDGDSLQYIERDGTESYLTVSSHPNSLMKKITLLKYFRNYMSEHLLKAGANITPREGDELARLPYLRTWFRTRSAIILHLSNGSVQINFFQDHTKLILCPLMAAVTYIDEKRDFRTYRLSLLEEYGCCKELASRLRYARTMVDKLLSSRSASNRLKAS

Row | SMILES | Ki [nM]
1 | C[C@@H](Nc1ncc(C#N)c(-c2c[nH]c3ncc(C(F)(F)F)cc23)n1)C1CCN(C(=O)[C@H](N)CCCN)CC1 [Compound I-252, 2-((R)-1-(1-((R)-2,5-diaminopentanoyl)piperidin-4-yl)ethylamino)-4-(5-(trifluoromethyl)-1H-pyrrolo[2,3-b]pyridin-3-yl)pyrimidine-5-carbonitrile] | 3 to 40
2 | N#Cc1cnc(NCc2ccc(Cl)cc2)nc1-c1c[nH]c2ncc(C(F)(F)F)cc12 [Compound I-19, 2-(4-chlorobenzylamino)-4-(5-(trifluoromethyl)-1H-pyrrolo[2,3-b]pyridin-3-yl)pyrimidine-5-carbonitrile] | > 40
3 | N#Cc1cnc(NCCC2CCCCN2)nc1-c1c[nH]c2ncc(C(F)(F)F)cc12 (stereo not shown) [Compound I-68, 2-(2-(piperidin-2-yl)ethylamino)-4-(5-(trifluoromethyl)-1H-pyrrolo[2,3-b]pyridin-3-yl)pyrimidine-5-carbonitrile] | > 40
4 | CC(Nc1ncc(C#N)c(-c2c[nH]c3ncc(C(F)(F)F)cc23)n1)C1CCN(C(=O)N(C)C)CC1 (stereo not shown) [Compound I-157, 4-(1-(5-cyano-4-(5-(trifluoromethyl)-1H-pyrrolo[2,3-b]pyridin-3-yl)pyrimidin-2-ylamino)ethyl)-N,N-dimethylpiperidine-1-carboxamide] | < 3
5 | C[C@@H](Nc1ncc(C#N)c(-c2c[nH]c3ncc(C(F)(F)F)cc23)n1)c1ccc2ccccc2c1 [Compound I-31, 2-((R)-1-(naphthalen-2-yl)ethylamino)-4-(5-(trifluoromethyl)-1H-pyrrolo[2,3-b]pyridin-3-yl)pyrimidine-5-carbonitrile] | 3 to 40
6 | CCC(O)CNc1ncc(C#N)c(-c2c[nH]c3ncc(C(F)(F)F)cc23)n1 (stereo not shown) [Compound I-96, 2-(2-hydroxybutylamino)-4-(5-(trifluoromethyl)-1H-pyrrolo[2,3-b]pyridin-3-yl)pyrimidine-5-carbonitrile] | 3 to 40
7 | C[C@@H](Nc1ncc(C#N)c(-c2c[nH]c3ncc(C(F)(F)F)cc23)n1)c1ccc(O[C@@H]2CCN(C)C2)nc1 [Compound I-300, 2-(I-1-(6-(I-1-methylpyrrolidin-3-yloxy)pyridin-3-yl)ethylamino)-4-(5-(trifluoromethyl)-1H-pyrrolo[2,3-b]pyridin-3-yl)pyrimidine-5-carbonitrile] | < 3
8 | N#Cc1cnc(NC[C@H]2CCCN2)nc1-c1c[nH]c2ncc(C(F)(F)F)cc12 [Compound I-88, 2-((R)-pyrrolidin-2-ylmethylamino)-4-(5-(trifluoromethyl)-1H-pyrrolo[2,3-b]pyridin-3-yl)pyrimidine-5-carbonitrile] | > 40
9 | CC(C)(Nc1ncc(C#N)c(-c2c[nH]c3ncc(Cl)cc23)n1)C(=O)NC1CCCCC1 [IA-5, 2-(4-(5-chloro-1H-pyrrolo[2,3-b]pyridin-3-yl)-5-cyanopyrimidin-2-ylamino)-N-cyclohexyl-2-methylpropanamide] | 3 to 40
10 | N#CCNc1ncc(C#N)c(-c2c[nH]c3ncc(C(F)(F)F)cc23)n1 [Compound I-71, 2-(cyanomethylamino)-4-(5-(trifluoromethyl)-1H-pyrrolo[2,3-b]pyridin-3-yl)pyrimidine-5-carbonitrile] | > 40
11 | C[C@H](CN1CCOCC1)Nc1ncc(C#N)c(-c2c[nH]c3ncc(C(F)(F)F)cc23)n1 [Compound I-132, 2-((R)-1-morpholinopropan-2-ylamino)-4-(5-(trifluoromethyl)-1H-pyrrolo[2,3-b]pyridin-3-yl)pyrimidine-5-carbonitrile] | 3 to 40
12 | N#Cc1cnc(SCCc2ccccc2)nc1-c1c[nH]c2ncc(C(F)(F)F)cc12 [II-10, 2-(phenethylthio)-4-(5-(trifluoromethyl)-1H-pyrrolo[2,3-b]pyridin-3-yl)pyrimidine-5-carbonitrile] | > 40
13 | C[C@@H](N)C(=O)N1CCC([C@@H](C)Nc2ncc(C#N)c(-c3c[nH]c4ncc(C(F)(F)F)cc34)n2)CC1 [Compound I-225, 2-((R)-1-(1-((R)-2-aminopropanoyl)piperidin-4-yl)ethylamino)-4-(5-(trifluoromethyl)-1H-pyrrolo[2,3-b]pyridin-3-yl)pyrimidine-5-carbonitrile] | < 3
14 | COc1ccc([C@@H](C)Nc2ncc(C#N)c(-c3c[nH]c4ncc(C(F)(F)F)cc34)n2)cc1 [Compound I-26, 2-((R)-1-(4-methoxyphenyl)ethylamino)-4-(5-(trifluoromethyl)-1H-pyrrolo[2,3-b]pyridin-3-yl)pyrimidine-5-carbonitrile] | < 3
15 | C[C@@H](Nc1ncc(C#N)c(-c2c[nH]c3ncc(C(F)(F)F)cc23)n1)C1CCN(C(=O)CN)CC1 [Compound I-210, 2-((R)-1-(1-(2-aminoacetyl)piperidin-4-yl)ethylamino)-4-(5-(trifluoromethyl)-1H-pyrrolo[2,3-b]pyridin-3-yl)pyrimidine-5-carbonitrile] | < 3
16 | N#Cc1cnc(NCc2ccccn2)nc1-c1c[nH]c2ncc(C(F)(F)F)cc12 [Compound I-64, 2-(pyridin-2-ylmethylamino)-4-(5-(trifluoromethyl)-1H-pyrrolo[2,3-b]pyridin-3-yl)pyrimidine-5-carbonitrile] | > 40

Row | SMILES | Ki [nM]
17 | COc1cc(CNc2ncc(C#N)c(-c3c[nH]c4ncc(C(F)(F)F)cc34)n2)ccc1O [Compound I-42, 2-(4-hydroxy-3-methoxybenzylamino)-4-(5-(trifluoromethyl)-1H-pyrrolo[2,3-b]pyridin-3-yl)pyrimidine-5-carbonitrile] | > 40
18 | N#Cc1cnc(Nc2ccccc2)nc1-c1c[nH]c2ncc(C(F)(F)F)cc12 [Compound I-25, 2-(phenylamino)-4-(5-(trifluoromethyl)-1H-pyrrolo[2,3-b]pyridin-3-yl)pyrimidine-5-carbonitrile] | 3 to 40
19 | C[C@@H](Nc1ncc(C#N)c(-c2c[nH]c3ncc(C(F)(F)F)cc23)n1)C1CCN(C(=O)C(O)CO)CC1 (stereo partly drawn) [Compound I-257, 2-((1R)-1-(1-(2,3-dihydroxypropanoyl)piperidin-4-yl)ethylamino)-4-(5-(trifluoromethyl)-1H-pyrrolo[2,3-b]pyridin-3-yl)pyrimidine-5-carbonitrile] | < 3
20 | COc1ccc(Sc2ncc(C#N)c(-c3c[nH]c4ncc(C(F)(F)F)cc34)n2)cc1 [II-3, 2-(4-methoxyphenylthio)-4-(5-(trifluoromethyl)-1H-pyrrolo[2,3-b]pyridin-3-yl)pyrimidine-5-carbonitrile] | > 40
21 | N#Cc1cnc(Sc2cccc(Cl)c2)nc1-c1c[nH]c2ncc(C(F)(F)F)cc12 [II-6, 2-(3-chlorophenylthio)-4-(5-(trifluoromethyl)-1H-pyrrolo[2,3-b]pyridin-3-yl)pyrimidine-5-carbonitrile] | > 40
22 | C[C@@H](Nc1ncc(C#N)c(-c2c[nH]c3ncc(C(F)(F)F)cc23)n1)c1ccc(N2CCCN(C)CC2)nc1 [Compound I-292, 2-((R)-1-(6-(4-methyl-1,4-diazepan-1-yl)pyridin-3-yl)ethylamino)-4-(5-(trifluoromethyl)-1H-pyrrolo[2,3-b]pyridin-3-yl)pyrimidine-5-carbonitrile] | < 3
23 | CCN(CC)S(=O)(=O)c1ccc(C(C)Nc2ncc(C#N)c(-c3c[nH]c4ncc(C(F)(F)F)cc34)n2)cc1 (stereo not shown) [Compound I-181, 4-(1-(5-cyano-4-(5-(trifluoromethyl)-1H-pyrrolo[2,3-b]pyridin-3-yl)pyrimidin-2-ylamino)ethyl)-N,N-diethylbenzenesulfonamide] | 3 to 40
24 | CC(C)N1CCN(c2ccc([C@@H](C)Nc3ncc(C#N)c(-c4c[nH]c5ncc(C(F)(F)F)cc45)n3)cn2)CC1 [Compound I-284, 2-((R)-1-(6-(4-isopropylpiperazin-1-yl)pyridin-3-yl)ethylamino)-4-(5-(trifluoromethyl)-1H-pyrrolo[2,3-b]pyridin-3-yl)pyrimidine-5-carbonitrile] | < 3
25 | N#Cc1cnc(NCc2ccc3c(c2)OCO3)nc1-c1c[nH]c2ncc(C(F)(F)F)cc12 [Compound I-56] | 3 to 40
26 | C[C@@H](Nc1ncc(C#N)c(-c2c[nH]c3ncc(C(F)(F)F)cc23)n1)C1CCNCC1 [Compound I-204, 2-((R)-1-(piperidin-4-yl)ethylamino)-4-(5-(trifluoromethyl)-1H-pyrrolo[2,3-b]pyridin-3-yl)pyrimidine-5-carbonitrile] | 3 to 40
27 | N#Cc1cnc(NC2CCOCC2)nc1-c1c[nH]c2ncc(C(F)(F)F)cc12 [Compound I-74, 2-(tetrahydro-2H-pyran-4-ylamino)-4-(5-(trifluoromethyl)-1H-pyrrolo[2,3-b]pyridin-3-yl)pyrimidine-5-carbonitrile] | 3 to 40
28 | CC(Nc1ncc(C#N)c(-c2c[nH]c3ncc(C(F)(F)F)cc23)n1)c1ccc(N2CCN(C(=O)OC(C)(C)C)CC2)cc1 (stereo not shown) [Compound I-123, tert-butyl 4-(4-(1-(5-cyano-4-(5-(trifluoromethyl)-1H-pyrrolo[2,3-b]pyridin-3-yl)pyrimidin-2-ylamino)ethyl)phenyl)piperazine-1-carboxylate] | 3 to 40
29 | CC[C@@H](N)C(=O)N1CCC([C@@H](C)Nc2ncc(C#N)c(-c3c[nH]c4ncc(C(F)(F)F)cc34)n2)CC1 [Compound I-226, 2-((R)-1-(1-((R)-2-aminobutanoyl)piperidin-4-yl)ethylamino)-4-(5-(trifluoromethyl)-1H-pyrrolo[2,3-b]pyridin-3-yl)pyrimidine-5-carbonitrile] | < 3
30 | N#Cc1cnc(NC2(C(=O)NCC(F)(F)F)CCCC2)nc1-c1c[nH]c2ncc(Cl)cc12 [IA-7, 1-(4-(5-chloro-1H-pyrrolo[2,3-b]pyridin-3-yl)-5-cyanopyrimidin-2-ylamino)-N-(2,2,2-trifluoroethyl)cyclopentanecarboxamide] | > 40
31 | N#Cc1cnc(NC(CO)C2CCOCC2)nc1-c1c[nH]c2ncc(C(F)(F)F)cc12 (stereo not shown) [Compound I-105, 2-(2-hydroxy-1-(tetrahydro-2H-pyran-4-yl)ethylamino)-4-(5-(trifluoromethyl)-1H-pyrrolo[2,3-b]pyridin-3-yl)pyrimidine-5-carbonitrile] | 3 to 40

From patent US8530489B2 (Vertex Pharmaceuticals Incorporated, priority 2006, dated 2013)
